The text below walks through data of patent US20050154537A1, “Methods, program products, and systems for single and multi-agent dosing and other related methods” (priority 2003, published 2005).

What all share (type): in vivo
Data set [1] concerns Platelets. Nature of the data set: Lookup table: marker validity (nadir) window, Platelets. Conditions: days elapsed between current dose and marker; for Platelets LL: lower limit of nadir range; for Platelets UL: upper limit of nadir range. The text has this:
(§1) A lookup table has been constructed (see above example), in the form of a table, to represent the relationship of each trial Agent and its qualified Clinical Markers. This table includes information regarding the Maximum Dose and the Inverse Marker Applicability for each Agent. The gray cells on the Cycle Dose Modifier indicate these values.
(§2) The table also includes information regarding the nadir of applicability for each Agent—Marker combination. The range, in days and indicated as the Lower Limit and Upper limit, has been determined by calculating a percentage (20%) above and below the true nadir value when only a single value is known. Otherwise, the upper and lower nadir values are used. […] The values of Upper and Lower limits is shown as a property of the Association between Markers and Agents. The Relevancy of a Marker can be computed using the lookup table by comparing the number of days elapsed between the date of the application of the current dose and the date on which the Marker was taken to the upper and lower values for that Agent Marker Association. If the elapsed days are greater than or equal to the lower limit and less than or equal to the upper limit, then the calculations provided by the Cycle Dose Modifier are said to be relevant and thereby applicable as indicated in the yellow Marker Validity cell. The Relevancy of Cycle Dose Modifier Calculations for Agent 1 is based on the Validity of Marker for Agent 1 calculated by: =IF(and((($B13−B6)>=VLOOKUP(B$3,Validity!$A$3:$K$8,10)),((B$13−B6)<=VLOOKUP(B$3,Validity!$A$3:$K$8,11))),“valid”,“invalid”)

Data set [2] concerns Neutrophil Count (ANC). Nature of the data set: Lookup table: marker validity (nadir) window, Neutrophil Count (ANC). The settings on record: days elapsed between current dose and marker; for Neutrophil Count (ANC) LL: lower limit of nadir range; for Neutrophil Count (ANC) UL: upper limit of nadir range.
From the text: as §1, §2

The test system of data set [3] is Hemoglobin (Hgb). Put plainly: Lookup table: marker validity (nadir) window, Hemoglobin (Hgb). The settings on record: days elapsed between current dose and marker; for Hemoglobin (Hgb) LL: lower limit of nadir range; for Hemoglobin (Hgb) UL: upper limit of nadir range.
From the text: as §1, §2

Data set [4] relates to LDL. Put plainly: Non-Pharm Example 1: doublet Lipitor and aerobics, LDL marker. The text has this: (§3) Efficacy/Toxicity Determinant Agent 2 (Gemzar) (ETD2) is a value determined by the prescriber. Set at an initial value of 1, this value is then adjusted based upon actual case scenarios with a full data set to adjust the value to identify the contribution to the toxicity or efficacy until the actual value is achieved. It can be used to modify dose based upon non-pharmacologic effects such as diet, exercise and activity as determined by the prescriber. A non-pharmacologic two-part combination therapy example could include a cholesterol lowering agent and exercise or cholesterol lowering agent and a restrictive diet. In place of dose the exercise value would be measured in ‘METS’ (Metabolic Equivalent of oxygen consumption) or the dietary prescription in calories or grams of fat or cholesterol.
Doublet Agent One: Pharmacologic, Agent Two:Non-Pharmacologic (Exercise)

The subject of data set [5] is LDL. Put plainly: Non-Pharm Example 2: triplet Lipitor, aerobics and diet, LDL marker.
From the text: as §3, with “Set” for “Efficacy/Toxicity Determinant Agent 2 (Gemzar) (ETD2) is a value determined by the prescriber. Set”, “three-part” for “two-part”, “agent,” for “agent and”, “exercise” for “exercise or cholesterol lowering agent”, “of” for “of fat or”
Triplet, Agent One: Pharmacologic, Agent Two: Non-Pharmacologic (Exercise), Agent Three: Diet (Grams of Cholesterol)

Data set [6] deals with INR. Nature of the data set: Single agent cycle dose modifier, warfarin sodium patient example. The settings on record: for Current Level of Efficacy/CLTE: current cycle total dose 57, dose Oct. 21, marker Oct. 26, 2004; for Previous Level of Efficacy/PLTE: previous cycle total dose 60, seven-day cycle. The text has this:
Warfarin Sodium (coumadin) is used in this example as a single agent. Table 1 illustrates a method of revising a drug dose in treating a patient with one pharamcologic […] modality to optimize pharmacologic outcome and to reduce the risk of an adverse drug event while assessing the clinical relevancy and validity of the measured surrogate marker.
In Table 1, Previous Cycle Total Dose (PCTD) is a value directly entered without new calculation. It is the cumulative amount of the agent administered during the previous treatment cycle as defined by the total amount of drug given over a fixed period of time, such as in chemotherapy, the total amount, e.g., mg/m^2, administered throughout the defined regimen period. In this single agent therapy example for chronic disease management, that is, prevention of venous thrombosis with warfarin sodium, the cycle becomes the total amount of warfarin sodium, in milligrams, administered over a seven-day period. The period is determined when the modifier is constructed.
Previous Level of Toxicity-Efficacy (PLTE) is a value directly entered such as from a lab report. It is the numerical value of a marker of toxicity or efficacy reported at the previous dose cycle adjustment (evaluated at a specified elapsed time sufficient to capture the nadir of the dose effect). The surrogate marker is selected when the dose modifier is constructed.
Current Level of Toxicity-Efficacy (CLTE) is also a value directly entered such as from a lab report. It is the numerical value of the marker of toxicity or efficacy reported with the current dose cycle. The surrogate marker is that value that illustrates the expression of the toxicity or efficacy of the agent on a specific and pre-selected value determined when the dose modifier is constructed. The value is selected based upon the agent, its pharmacologic properties and the disease condition under treatment. The confidence or validity of the marker is based upon its maturity of effect in that a nadir or cycle of effect is dynamic and may vary based upon the time span between receipt of the agent and sampling of the value. Therefore the value may be valid or invalid based upon this timing factor. If invalid, then the dose adjustment cannot be made. If valid, then the value is fully appreciated and the dose modification can be calculated. The surrogate marker is selected when the dose modifier is constructed.
Expected Current Level (ECL) is a comparative operator used to illustrate the mathematical expectation of the patient's response to the actual patient response to classify their individual response characteristics. […]

SMILES strings stand for the structures.

As for `N.N.O=C([O-])C1(C(=O)[O-])CCC1.[Pt+2]` [Carboplatin], in data set [1], the “Platelets LL” value is reported as 17 days and the “Platelets UL” value was found to be 25 days. Also, in data set [2], the “Neutrophil Count (ANC) LL” value came to 17 days and the “Neutrophil Count (ANC) UL” value came out at 25 days. Also, in data set [3], the “Hemoglobin (Hgb) LL” value was 14 days and the “Hemoglobin (Hgb) UL” value amounted to 21 days.

In the case of `N.N.[Cl][Pt][Cl]` [Cisplatin], in data set [1], the “Platelets LL” value was found to be 18 days and the “Platelets UL” value amounted to 23 days. In addition, in data set [2], the “Neutrophil Count (ANC) LL” value came to 18 days and the “Neutrophil Count (ANC) UL” value amounted to 23 days. Moreover, in data set [3], the “Hemoglobin (Hgb) LL” value was 18 days and the “Hemoglobin (Hgb) UL” value was 23 days.

Regarding `Nc1ccn([C@@H]2O[C@H](CO)[C@@H](O)C2(F)F)c(=O)n1` [Gemzar], in data set [1], the “Platelets LL” value stood at 7 days and the “Platelets UL” value came to 10 days. Further, in data set [2], the “Neutrophil Count (ANC) LL” value is reported as 7 days and the “Neutrophil Count (ANC) UL” value was 10 days. In addition, in data set [3], the “Hemoglobin (Hgb) LL” value is recorded as 7 days and the “Hemoglobin (Hgb) UL” value came out at 10 days.

With `CC(C)c1c(C(=O)Nc2ccccc2)c(-c2ccccc2)c(-c2ccc(F)cc2)n1CC[C@@H](O)C[C@@H](O)CC(=O)O` [Lipitor], in data set [4] (current cycle Lipitor 280 with aerobics 168/week, marker Dec. 05, 2004), the “Current Level of Efficacy/CLTEM1” value stood at 120. For the same compound, the “Previous Level of Efficacy/PLTEM1” value in data set [4] (previous cycle Lipitor 210 with aerobics 140/week) is recorded as 150. For the same compound, in data set [5] (current cycle Lipitor 300.00 with aerobics 168/week and diet 182/week, marker Dec. 05, 2004), the “Current Level of Efficacy CLTEM1” value is 122. The “Previous Level of/PLTEM1” value in data set [5] (previous cycle Lipitor 220.00 with aerobics 140/week and diet 210/week) is reported as 140.

With `CC(=O)O[C@@]12CO[C@@H]1C[C@H](O)[C@@]1(C)C(=O)[C@H](O)C3=C(C)[C@@H](OC(=O)[C@H](O)[C@@H](NC(=O)OC(C)(C)C)c4ccccc4)C[C@@](O)([C@@H](OC(=O)c4ccccc4)[C@H]21)C3(C)C` [Taxotere], in data set [1], the “Platelets LL” value is on record as 6 days and the “Platelets UL” value stood at 8 days. For the same compound, in data set [2], the “Neutrophil Count (ANC) LL” value was 6 days and the “Neutrophil Count (ANC) UL” value amounted to 8 days. In data set [3], the “Hemoglobin (Hgb) LL” value was determined as 8 days and the “Hemoglobin (Hgb) UL” value was 11 days.

For `CC(=O)CC(c1ccccc1)c1c(O)c2ccccc2oc1=O` (centres unmarked) [Warfarin Sodium], in data set [6] (Comparison Cycle column), the “Current Level of Efficacy/CLTE” value is 3.80 and the “Previous Level of Efficacy/PLTE” value is listed as 4.50. Besides, in data set [6] (Current Cycle column), the “Current Level of Efficacy/CLTE” value came out at 3.80 and the “Previous Level of Efficacy/PLTE” value is recorded as 4.50.
